The nature of data set [1]: in vivo. The conditions noted are these: Sprague-Dawley, rat, iv, 1 mg/kg.
Data set [2] in a line: in vivo. The conditions noted are these: Sprague-Dawley, rat, po, 10 mg/kg.
Data set [3] is described as follows: in vivo. Particulars: Sprague-Dawley, rat, po, 10 mg/kg. This is another data set of the same source.
Data set [4] can be described thus: in vivo. The conditions noted are these: Sprague-Dawley, rat, iv, 1 mg/kg. This is another data set of the same source.
Data set [5] can be described thus: in vivo. The conditions noted are these: Sprague-Dawley, rat, iv, 1 mg/kg. This is another data set of the same source.
The nature of data set [6]: in vivo. Particulars: Sprague-Dawley, rat, iv, 1 mg/kg. The source holds these as a separate data set.
The nature of data set [7]: in vivo. The conditions noted are these: Sprague-Dawley, rat, po, 10 mg/kg. This is another data set of the same source.
The nature of data set [8]: in vivo. Particulars: Sprague-Dawley, rat, po, 10 mg/kg. The source holds these as a separate data set.
Data set [9] is described as follows: in vivo. Particulars: Sprague-Dawley, rat, po, 10 mg/kg. This is another data set of the same source.
Data set [10] in a line: in vivo. The conditions noted are these: Sprague-Dawley, rat, iv, 1 mg/kg. The source holds these as a separate data set.
The nature of data set [11]: in vivo. The conditions noted are these: Sprague-Dawley, rat, po, 10 mg/kg. The source holds these as a separate data set.
Data set [12] in a line: in vivo. The conditions noted are these: Sprague-Dawley, rat, iv, 1 mg/kg. The source holds these as a separate data set.
Data set [13] can be described thus: in vivo. Particulars: Sprague-Dawley, rat, po, 10 mg/kg. The source holds these as a separate data set.
Data set [14] is described as follows: in vivo. Particulars: Sprague-Dawley, rat, po, 10 mg/kg. This is another data set of the same source.
Data set [15] in a line: in vivo. The conditions noted are these: Sprague-Dawley, rat, iv, 1 mg/kg. This is another data set of the same source.

As to `CC#CC(=O)N1CCC(c2cnn3c(C(N)=O)c(-c4ccc(Oc5ccccc5)cc4)[nH]c23)CC1`, the Cmax (usually the peak of the concentration-time curve) at 12 h in the data set “in vivo [1]” was determined as 537 ng/mL. In “in vivo [2]”, the time to peak (Tmax) (commonly the time from dosing to the highest level) at 24 h was 0.83 h. Moreover, the apparent clearance CL/F (usually clearance divided by bioavailability, as obtained after extravascular dosing) at 24 h in “in vivo [3]” was 786 mL/min/kg. Besides, the Tmax at 12 h in “in vivo [4]” worked out at 1.98 min. Moreover, in the data set “in vivo [5]”, the clearance (in general, the rate of elimination divided by the concentration) at 12 h was 85 mL/min/kg. For the same compound, the MRT last (in general, a mean duration of stay, worked out from the concentration-time curve) at 12 h in the data set “in vivo [6]” was found to be 2.19 h. Moreover, in the data set “in vivo [7]”, the bioavailability (commonly the share of a dose that reaches the circulation, judged against a reference dose that is usually intravenous) at 24 h amounted to 10.8%. The compound further had an MRT last at 24 h in the data set “in vivo [8]” of 10.2 h. Moreover, the AUC(0-inf) (in general, total exposure, with the tail of the curve extrapolated) at 24 h in “in vivo [9]” came to 213 ng·h/mL. Also, the AUC(0-t) – broadly, the area under the concentration-time curve up to a stated or last time point – at 12 h in the data set “in vivo [10]” worked out at 180 ng·h/mL. In “in vivo [11]”, the area under the curve AUC(0-t) at 24 h was 167 ng·h/mL. In “in vivo [12]”, the half-life (commonly how long it takes for the measured level to halve) at 12 h is 2.35 h. Besides, in “in vivo [13]”, the half-life at 24 h was 5.98 h. Also, the Cmax at 24 h in the data set “in vivo [14]” amounted to 16 ng/mL. The same compound had an area under the curve AUC(0-inf) at 12 h in “in vivo [15]” of 198 ng·h/mL.

The record behind these values is ChEMBL document CHEMBL4842353, “Structure-activity relationship investigation for imidazopyrazole-3-carboxamide derivatives as novel selective inhibitors of Bruton's tyrosine kinase” (Eur J Med Chem, 2021).
